Data on 9 compounds can be found in patent US20250152706A1, “COMPOSITIONS FOR ORAL DELIVERY OF BIOTHERAPEUTICS” (INTRACT PHARMA LIMITED, priority 2022, published 2025).

“Also recorded” adds a separate entry of the source. Like-named read-outs stand apart in the source and are kept apart here.

Data set [1] in a line: Ussing chamber penetration of oxytocin into rat colon tissue, RP-HPLC. It is filed as in vitro ADME. The conditions noted are these: Example 12. The procedure:
(§1) The chambers are made of solid acrylic and supports the tissue membrane in such a way that each side of the membrane is isolated and faces a different chamber representing the luminal (apical) and blood (basal) compartments. The working system consists of a unit to fit a maximum of six vertical chambers, a gas manifold for carbogen purging (95% O2, 5% CO2) and a heater block to maintain the temperature of the chambers at 37° C. during the experiments with the use of a circulating water bath. The chambers are two-piece assemblies held together by a high spring-tension retaining ring to ensure leak-free operation during the experiments. […]
(§2) For the tissue penetration studies, the freshly excised small intestine (jejunum) and proximal colon tissue of healthy wistar rats was collected and transferred to an ice-cold solution of Krebs-Bicarbonate Ringer solution (KBr) of pH 7.4. […] The TEER was continuously monitored during the experiment to confirm the viability and integrity of the tissue. […]
(§3) Permeability of the drug oxytocin across rat small intestine (jejunum) and colon tissue was measured with and without 5-ALA. The peptide in the tissue at 2 h and was measured by RP-HPLC.

Data set [2] is described as follows: Ussing chamber penetration of infliximab into rat colon tissue, ELISA. The conditions noted are these: 2 h. The method, then: as §1, §2
(§4) Infliximab sample analysis (permeability studies) was performed using an indirect ELISA platform assay. […] The plate was read at a wavelength of 650 nm with the plate reader (Synergy LX Multimode Reader, Biotek).
(§5) Permeability of the drug infliximab across rat small intestine (jejunum) and colon tissue was measured with and without 5-ALA and the base, L-arginine. […]
On the technique in general: An ELISA detects its analyte on a solid surface through an enzyme-linked reagent.

Data set [3] can be described thus: Stability of oxytocin in rat caecum slurry, RP-HPLC. The conditions noted are these: for effect of the excipient on oxytocin stability, in words: rat caecum slurry, Examples 6 and 7; for remaining at 2 h, 1 mg/ml: Wistar, rat, pH 5.5, % Drug at T = 2 h, oxytocin 1 mg/ml, aprotinin 1 mg/ml in rat caecum slurry.
Description: The rat caecum slurry was based on combination of cecum and proximal colon fluids collected from healthy wistar rats weighing 250 g. The fluids were collected immediately after sacrificing the rats and transferred to an anaerobic workstation (Electrotek 500TG™ workstation, Electrotek, West Yorkshire, UK) maintained at 37° C. and 70% relative air humidity. The fluids were diluted with freshly prepared basal medium to obtain a 50% w/w caecum fluid by homogenization. The homogenized mixture was sieved through an open mesh fabric. The pH of the fluid was measured as 5.5.
Peptide stock solution (oxytocin) were prepared in PBS at 2 mg/ml concentrations. Concentrations of 10 mg/ml and 40 mg/ml 5-ALA, 40 mg/ml methyl-ALA, 40 mg/ml hexyl-ALA and 2 mg/ml aprotinin were prepared. Stock solutions containing certain oxytocin combinations were added to 50% rat caecum slurry to obtain incubation concentrations (Examples 6 and 7) of 1 mg/ml peptide, 5 mg/ml or 20 mg/ml 5-ALA, 20 mg/ml methyl-ALA, 20 mg/ml hexyl-ALA, 1 mg/ml aprotinin, and 25% w/w rat caecum slurry. Samples were withdrawn at appropriate time points and added to 0.1N HCl solution in a ratio of 1:3. The samples were centrifuged at 9.6 g for 10 mins and the supernatant was analysed by reversed phase-HPLC (RP-HPLC).
A 150×4.6-mm Luna 5 μm C18 100 Å (Phenomenex, Torrance, CA) column was used using a gradient system as below:
Each sample's injection volume was 20 μl, the mobile phase flow rate was 1 ml/min and the peptide was detected at 214 nm. Each sample was run for 23 mins.
Stability of the drug oxytocin in rat caecum slurry was measured with and without 5-ALA and aprotinin, an enzyme inhibitor. Each experiment was conducted in duplicate/triplicate. The oxytocin remaining at different time points was measured by RP-HPLC.
Stability of the drug oxytocin in rat caecum slurry was measured with and without methyl-ALA, hexyl-ALA and aprotinin, an enzyme inhibitor. Each experiment was conducted in duplicate/triplicate. The oxytocin remaining at different time points was measured by RP-HPLC.
The nature of data set [4]: Ussing chamber penetration of infliximab into rat small intestine tissue, ELISA. The conditions noted are these: 2 h, Examples 8-10. The procedure: as §1, §2, §4, §5
Data set [5] in a line: Stability of infliximab in human colon fluid (human colon model), SE-HPLC. It is filed as in vitro ADME. The conditions noted are these: for effect of the excipient on infliximab stability, in words: human colon fluid, Examples 1 and 4. The method, then:
A human colonic model based on a mixed faecal inoculum was used to mimic the luminal environment of the human large intestine. […] The basal media provides nutrients and growth factors to the microbiota allowing viability for up to 24 hours. The homogenized bacterial media was sieved through an open mesh fabric (SefarNitex™, pore size 350 μm) to remove any nonhomogeneous fibrous material. The pH was maintained at approximately 7.0 to mimic the colonic luminal pH of the human.
Stability of the drug/antibody infliximab in human colon fluid was measured with and without 5-ALA at varying concentrations. Each experiment was conducted in duplicate/triplicate.
Stability of the drug infliximab in human colon fluid was measured with and without 5-ALA and L-arginine at varying concentrations. Each experiment was conducted in duplicate/triplicate.
Stability of the drug infliximab in human colon fluid was measured with and without 5-ALA and aprotinin at varying pH. Each experiment was conducted in duplicate/triplicate.
Each experiment was conducted in duplicate/triplicate.

The procedure of data set [6]: Antibody stock solution (infliximab) was prepared in PBS at a 2 mg/ml concentration. 5-ALA was prepared at concentrations 10, 20 or 40 mg/ml. Methyl-ALA, hexyl-ALA, salcaprozate sodium, (SNAC) and sodium chenodeoxycholate were prepared at 20 mg/ml concentrations. The base L-arginine was prepared at 11, 22 or 44 mg/ml, and the stabiliser aprotinin was prepared at a 2 mg/ml concentration.
A 300×8.0-mm YMC-Pack Diol-200 S-5 μm, 20 nm (YMC Co Ltd, Kyoto, Japan) size exclusion (SE) chromatography column was used for sample separation using phosphate buffer saline (pH 7.3) prepared in sterile HPLC grade water as the mobile phase for elution, at a flow rate of 0.5 ml/min. The analysis was operated at room temperature and UV detection wavelength was set at 214 nm. Each sample was run for 40 minutes to allow complete elution of the sample proteins and reduce run-over.
Stability of the drug infliximab in rat caecum slurry was measured with and without SNAC, sodium chenodeoxycholate, hexyl-ALA and aprotinin. Each experiment was conducted in duplicate/triplicate. The antibody remaining at different time points was measured by SE-HPLC.

The nature of data set [7]: Ussing chamber penetration of oxytocin into rat small intestine tissue, RP-HPLC. The conditions noted are these: 2 h, Examples 12-14. The procedure:
as §1, §2, §3
Permeability of oxytocin across rat small intestine (jejunum) was measured with and without 5-ALA, methyl-ALA and hexyl-ALA. The peptide in the tissue at 2 h and was measured by RP-HPLC. […]

The mark [8] stands for this setting: Example 1, infliximab 1 mg/ml in human colon fluid, 5-ALA.HCl 5 mg/ml (pH 5.5), 10 mg/ml (pH 4.9), 20 mg/ml (pH 4.1).
Where [9] appears, read: Example 2, infliximab 1 mg/ml in human colon fluid, 5-ALA phosphate + L-arginine 5 + 5.5 mg/ml (pH 6.4), 10 + 11 mg/ml (6.5), 20 + 22 mg/ml (pH 6.5), 5-ALA phosphate 20 mg/ml + NaOH (pH 6.4).
Setting [10] is: Example 4, infliximab 1 mg/ml, 5-ALA.HCl / methyl-ALA / hexyl-ALA 10 mg/ml, aprotinin 1 mg/ml in human colon fluid, pH 6.5.

For orientation: fraction remaining means the share of the starting amount still present when the sample was taken. Low readings indicate a greater loss, high ones greater stability.

For the compound `NCC(=O)CCC(=O)O` [Formulation 5-ALA, 5-aminolevulinic acid], the “effect of the excipient on oxytocin permeation / tissue level, in words” value in data set [1] (rat colon tissue, 2 h) is “acts as a permeability enhancer and increases the amount of oxytocin”. Moreover, the “effect of the excipient on infliximab permeation / tissue uptake, in words” value in data set [2] (rat colon tissue, Example 8) is given as “did not lead to permeation or improved tissue uptake of infliximab”; in data set [4], “did not lead to permeation or improved tissue uptake of infliximab”. Besides, in data set [3], the “effect of the excipient on oxytocin stability, in words” value was “acts as a stabiliser and increases the amount of peptide present in the caecum slurry”. In addition, the “effect of the excipient on infliximab stability, in words” value in data set [5] is recorded as “provides antibody stability; also recorded: does not stabilize the antibody in a dose dependent manner”.

Consider `CC[C@H](C)[C@@H]1NC(=O)[C@H](Cc2ccc(O)cc2)NC(=O)[C@@H](N)CSSC[C@@H](C(=O)N2CCC[C@H]2C(=O)N[C@@H](CC(C)C)C(=O)NCC(N)=O)NC(=O)[C@H](CC(N)=O)NC(=O)[C@H](CCC(N)=O)NC1=O` [Oxytocin], for which, in data set [1] (oxytocin 1 mg/ml, 5-ALA.HCl 20 mg/ml), the “% Drug in colon tissue at 2 h” value is on record as 0.0 ± 0.0%. Further, the share remaining at 2 h, 1 mg/ml came to 10.9 ± 3.4% in data set [3] (Example 6, 5-ALA.HCl 20 mg/ml) and 5 ± 2% in data set [3] (Example 7, methyl-ALA / hexyl-ALA 20 mg/ml).

On to `O=C([O-])CCCCCCCNC(=O)c1ccccc1O.[Na+]` [SNAC, salcaprozate sodium], for which the “effect of the excipient on infliximab stability, in words” value in data set [6] is reported as “provide no stabilisation”.

As to `CCCCCCOC(=O)CCC(=O)CN` [hexyl-ALA, hexyl aminolevulinic acid], the “effect of the excipient on infliximab stability, in words” value in data set [6] is reported as “provide good antibody stability”; in data set [5], “greater antibody stabilisation”. Moreover, in data set [3], the “effect of the excipient on oxytocin stability, in words” value was “provide some peptide stabilisation”.

`COC(=O)CCC(=O)CN` [methyl-ALA, methyl aminolevulinic acid]: in data set [5], the “effect of the excipient on infliximab stability, in words” value is “greater antibody stabilisation”.

Consider `CCCCCCCCCC(=O)[O-].[Na+]` [sodium caprate], for which the “effect of the excipient on infliximab tissue level, in words” value in data set [2] (rat colon tissue pre-treated with NAC, Example 11) is “may have led to increased tissue levels of antibody”. In data set [7], the “effect of the excipient on oxytocin permeation / tissue level, in words” value is given as “greatest increase in oxytocin tissue levels”.

With `C[C@H](CCC(=O)[O-])[C@H]1CC[C@H]2[C@@H]3[C@H](O)C[C@@H]4C[C@H](O)CC[C@]4(C)[C@H]3CC[C@]12C.[Na+]` [sodium chenodeoxycholate], in data set [6], the “effect of the excipient on infliximab stability, in words” value is given as “provide no stabilisation”.

Take “Infliximab: monoclonal antibody; existing commercial IBD therapeutic antibody, tested alone as control”: the figures for the “% Drug at T = 2 h” value in data set [5] (setting [8]), in data set [5] (setting [9]) and in data set [5] (setting [10]) were 21.5 ± 0.0%, 16.5 ± 0.4% and 37.6 ± 3.5%, respectively. Moreover, the “% Drug at T = 4 h” value was 7.8 ± 0.0% in data set [5] (setting [8]), 6.5 ± 0.3% in data set [5] (setting [9]) and 16.1 ± 0.6% in data set [5] (setting [10]).

With aprotinin, in data set [6], the “effect of the excipient on infliximab stability, in words” value is on record as “provides an antibody stabilisation effect”.
